Experiments:
[1] = target: T1, human ALK5 (kinase domain, ALK5 T204D) (Homo sapiens, UniProt P36897, T204D); test: ALK5 kinase assay ([33P] phosphate incorporation into casein); assay type: biochemical; settings: casein substrate, 1 μM unlabelled ATP
T1 construct: The kinase domain of human ALK5 (amino acids 200-503); made in house; host or cells: insect cells (baculovirus)
T1 sequence (P36897 200-503 T204D): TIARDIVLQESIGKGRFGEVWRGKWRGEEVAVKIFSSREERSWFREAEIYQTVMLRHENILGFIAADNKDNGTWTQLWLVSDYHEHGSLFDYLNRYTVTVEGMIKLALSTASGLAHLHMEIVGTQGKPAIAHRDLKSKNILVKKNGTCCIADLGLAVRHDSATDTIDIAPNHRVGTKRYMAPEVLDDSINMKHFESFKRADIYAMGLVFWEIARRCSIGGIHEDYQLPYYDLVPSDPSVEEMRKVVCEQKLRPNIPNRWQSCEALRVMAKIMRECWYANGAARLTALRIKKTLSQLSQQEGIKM
How it was run: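 His-tagged human ALK5 T204D kinase domain (aa 200-503, constitutively active, baculovirus/insect-cell expressed), 50 ng/well, preincubated 10 min with compound and dephosphorylated casein (200 μg/well) in Tris pH 7.4/MgCl2/MnCl2. Reaction started with 1 μM ATP plus [33P]ATP, 50 min at room temperature, EDTA-stopped; casein-bound 33P counted by scintillation after filter capture.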

[2] = tested on: dimethylnitrosamine induced liver fibrosis; settings: cited from earlier work
[3] = tested on: bleomycin-induced pulmonary fibrosis; settings: bleomycin-treated rats; cited from earlier work
[4] = given therapeutically to rat, 3 weeks treatment

## Cc1cccc(-c2cc(-c3cncc(-c4ccc(C(C)(C)N(C)CCO)cc4)c3)c3cc[nH]c3n2)n1 [Example 163, 2-{Methyl-[1-methyl-1-(4-{5-[6-(6-methyl-pyridin-2-yl)-1H-pyrrolo[2,3-b]pyridin-4-yl]-pyridin-3-yl}-phenyl)-ethyl]-amino}-ethanol]
[1]
  IC50: 6.6 nM

## Cc1cccc(-c2cc(-c3cncc(-c4ccc(C(C)(C)N)cc4C)c3)c3cc[nH]c3n2)n1 [Example 164, 1-Methyl-1-(3-methyl-4-{5-[6-(6-methyl-pyridin-2-yl)-1H-pyrrolo[2,3-b]pyridin-4-yl]-pyridin-3-yl}-phenyl)-ethylamine]
[1]
  IC50: 6.3 nM

## c1ccc(-c2cc(-c3cn[nH]c3-c3ccccn3)ccn2)cc1 [GW6604]
[2]; [4]
  inhibition of extracellular matrix deposition: 60%
  prevention of death rate: 40%
[2]; rat, in vivo
  side effects: no obvious side effects

B1: follistatin: "follistatin, an antagonist of activin signalling" (protein, UniProt P19883 30-344, looked up)
Follistatin: GNCWLRQAKNGRCQVLYKTELSKEECCSTGRLSTSWTEEDVNDNTLFKWMIFNGGAPNCIPCKETCENVDCGPGKKCRMNKKNKPRCVCAPDCSNITWKGPVCGLDGKTYRNECALLKARCKEQPELEVQYQGRCKKTCRDVFCPGSSTCVVDQTNNAYCVTCNRICPEPASSEQYLCGNDGVTYSSACHLRKATCLLGRSIGLAYEGKCIKAKSCEDIQCTGGKKCLWDFKVGRGRCSLCDELCPDSKSDEPVCASDNATYASECAMKEAACSSGVLLEVKHSGSCNSISEDTEEEEEDEDQDYSFPISSILEW
[3]
  lung fibrosis: attenuated lung fibrosis
  number of macrophages and neutrophils in bronchoalveolar lavage: significantly reduced

Reference: patent US8314112B2 (Novartis AG, priority 2008, dated 2012)
